Reference: publication PMC12561453, “Synthesis and Structure–Activity Relationship Study of 2-(amino)quinazolin-4(3H)-one Derivatives as Potential Inhibitors of Methicillin-Resistant Staphylococcus aureus (MRSA)” (Antibiotics, 2025)
Values after ≈ are worked out from the molar mass of the structure shown. Read-outs that look alike come from different tables or passages of the source.

What was measured:
S. aureus ATCC25923 = assay: Broth microdilution dose-response, S. aureus ATCC25923; type: cell-based, Staphylococcus aureus; conditions: Staphylococcus aureus, ATCC25923, methicillin-sensitive strain; OD600 after 18–24 h; read-out: ATCC25923 MIC50
From the text: The antistaphylococcal activities (MIC50) of the synthesized compounds were examined via a previously described broth microdilution method against two S. aureus strains: ATCC25923, a methicillin-sensitive reference strain, and JE2, a methicillin-resistant strain of the USA300 lineage (Figure 2, Table 1).
Staphylococcus aureus USA300, a methicillin-resistant strain, was obtained from the Nebraska Transposon Mutant Library. Staphylococcus aureus ATCC25923, a pan-drug-susceptible strain, was purchased from the American Type Culture Collection (ATCC) (Manassas, VA, USA). S. aureus strains were grown in Cation-Adjusted Mueller–Hinton broth (CAMHB) (Difco) at 37 °C. Bacterial strain stocks were stored in vials with 25% glycerol at −80 °C. For each experiment, overnight cultures were prepared by inoculating a frozen bacterial strain stock in 10 mL of CAMHB medium and incubating at 37 °C in a shaking incubator (180 rpm). For the preliminary screen and dose–response experiments, 100 µL of overnight culture was inoculated into 10 mL of fresh CAMHB and incubated for 3 h at 37 °C and 180 rpm.
Antibiotic susceptibility assay was tested according to modified Clinical and Laboratory Standards Institute (CLSI) laboratory guidelines for broth microdilution assays. S. aureus was cultured in CAMHB, and bacterial cells were prepared with an OD600 of 0.005. DRC plates were prepared by adding 40 µL of bacterial suspension to each well, where 10 µL of each compound had been dispensed for […] of two-fold serial dilutions starting at […]. After incubation of the plates at 37 °C for 18–24 h with 5% CO2, the growth of S. aureus was detected by measuring the OD600nm using an Ensight (Revvity) spectrometer (Revvity, Waltham, MA, USA).
Figure 2 In vitro antibacterial activities of 2-(amino)quinazolin-4(3H)-one derivatives. S. aureus ATCC25923 (blue) and USA300 JE (orange) strains were incubated with serial dilutions of 2-(amino)quinazolin-4(3H)-one derivatives (0.19–100 µM) for 18–24 h. The dose–responses were observed by measuring OD600nm. The plots were drawn from each group of strains with nonlinear curve fits.

[1] = tested on: S. aureus USA300 JE2 expressing GFP in H460 cells; assay: microbe, parasite or virus in culture; type: cell-based, Staphylococcus aureus; conditions: for MIC50: Staphylococcus aureus, USA300, 24 h, read-out: H460 Assay MIC50 (MIC50 ex vivo)
From the text: Staphylococcus aureus, including MRSA, can invade host cells and replicate intracellularly, which complicates treatment with current therapies. To evaluate the intracellular antibacterial activities of the selected compounds, the fifteen compounds tested for cytotoxicity were further assessed using a cell infection model based on H460 human lung epithelial cells, which mimic MRSA-mediated pneumonia. H460 cells were infected with the USA300 JE2 expressing green fluorescent protein (GFP) and subsequently treated with the compounds in a dose–response manner, along with three reference antibiotics: vancomycin, linezolid, and erythromycin. After 24 h of incubation, bacterial loads were quantified by measuring GFP fluorescence in each well. MIC50 values determined in the H460 infection model (MIC50 ex vivo) were generally higher than those obtained from the in vitro tests, likely due to either limited compound penetration into host cells or reduced antibacterial effect of the compounds against intracellular bacteria (Figure 3, Table 2). […] These findings underscore the potential of compound 6y as a promising lead for further development as a novel antistaphylococcal agent.
To see the ex vivo antimicrobial activity of the compound, the human lung carcinoma cell line H460 (ATCC #HTB-177) was used. The H460 cells were cultured in RPMI 1640 medium with 10% fetal bovine serum (FBS) and in a 96-well microplate at 37 °C and 5% CO2. Cell lines were cultured for 2 days, until they reached full confluence in the well. S. aureus (USA300-containing and pCM29-encoding GFP) was cultured in CAMHB with 10 µg/mL of chloramphenicol, and bacterial cells were harvested. After washing the bacterial cells with phosphate-buffered saline (PBS) and suspending them in RPMI, infected H460 cells with S. aureus (1 × 10^7 CFU) and incubated them for 2.5 h. Samples were washed three times with PBS. Then, cells were treated with gentamicin (50 µg/mL of gentamicin in RPMI) and incubated for 1 h. Samples were washed with PBS, RPMI-containing diluted compounds were added, and then they were incubated at 37 °C in 5% CO2 for 24 h. To detect the Green fluorescent protein (GFP) signal, an Ensight multimode plate reader and Opera Phenix Plus (Revvity, Waltham, MA, USA) were used.
Ex vivo infection model images were generated using the Opera Phenix Plus high-content imaging system. Images were obtained by a confocal microscope with a 20× water objective lens. To detect the bacteria fluorescence signal (GFP), the Alexa 488 channel (488 nm laser/500–550 filter, Thermo Fisher Scientific, Waltham, MA, USA) was used, and the brightfield channel was used for H460 cell images.
Figure 3 Antibacterial activities of 2-(amino)quinazolin-4(3H)-one derivatives in the H460 infection model. H460 cells were infected with S. aureus USA300 JE strain expressing GFP, followed by treatment with serial dilutions of 2-(amino)quinazolin-4(3H)-one derivatives. After incubation at 37 °C for 24 h with 5% CO2, fluorescence signals of the bacteria were detected at 488 nm/510 nm using a multilabel plate reader.

[2] = Cytotoxicity in VERO cells; type: cell-based; conditions: African green monkey, VERO cells (kidney cell line)
Description: Table S1. Results of hERG binding assay and cytotoxicity of 6l and 6y
Compound hERGa CytotoxicityVERO HFL-1 L929 NIH 3T3 CHO-K1
a % inhibition at 10 μM concentrations. b IC50 values in various mammalian cell lines. […]

[3] = Microsomal stability, rat; type: in vitro ADME; conditions: rat microsomes
Description: (§1) Table S2. Result of microsomal stability, plasma protein binding rate, and CYP inhibition of 6l and 6y
(§2) Compound MSa PPBrat human rat human 1A2 2C9 2C19 2D6 3A4
(§3) a % of remaining after 30 min. b plasma protein binding rate (%) at 5 μM concentrations. c % of CYP
(§4) inhibition in human liver microsomes at 10 μM concentrations. […]

CYP2C9 = molecular target: T1, CYP2C9 (Homo sapiens, UniProt P11712); assay: CYP inhibition in human liver microsomes, 2C9; type: in vitro ADME
T1 construct: from tissue; host or cells: human liver microsomes
T1 sequence (P11712 whole entry): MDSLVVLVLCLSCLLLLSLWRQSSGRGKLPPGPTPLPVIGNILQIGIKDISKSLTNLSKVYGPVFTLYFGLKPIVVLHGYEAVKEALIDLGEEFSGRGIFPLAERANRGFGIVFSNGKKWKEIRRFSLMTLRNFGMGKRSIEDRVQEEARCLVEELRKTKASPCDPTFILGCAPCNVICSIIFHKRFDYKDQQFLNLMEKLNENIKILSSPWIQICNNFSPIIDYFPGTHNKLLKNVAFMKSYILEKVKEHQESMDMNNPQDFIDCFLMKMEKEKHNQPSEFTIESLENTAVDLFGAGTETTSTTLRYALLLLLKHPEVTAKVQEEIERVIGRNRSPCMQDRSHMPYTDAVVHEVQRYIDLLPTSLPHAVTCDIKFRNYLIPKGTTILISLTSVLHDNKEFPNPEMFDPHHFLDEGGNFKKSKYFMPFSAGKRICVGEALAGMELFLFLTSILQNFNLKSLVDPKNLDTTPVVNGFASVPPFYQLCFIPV
Description: as §1, §2, §3, §4

[4] = Rat pharmacokinetic study; type: in vivo; conditions: male rats
Description: Table S3. Rat pharmacokinetic study of 6l and 6y
Parametersa I.V., 2 mg/kg P.O., 10 mg/kg I.V., 5 mg/kg P. O . , 1 0 mg/kg
Cmax ([…]) NA 0.9 NA 0.2
CL (L/h/kg) 0.25 NA 1.8 NA
a All results are mean of experiments using three male rats. b NA: not applicable

[5] = rat, in vivo, iv, I.V., 5 mg/kg

`O=c1[nH]c(Nc2cc(Cl)cc(Cl)c2)nc2cc(Cl)ccc12` [6l, 7-Chloro-2-((3,5-dichlorophenyl)amino)quinazolin-4(3H)-one] gave an MIC50 (S. aureus ATCC25923) of 1 µM (≈ 0.341 µg/mL), an MIC50 [1] of 12.1 µM (≈ 4.12 µg/mL) and an IC50 [2] of 8.5 µM. The “MS rat, % of remaining after 30 min” value [3] was 104.7%, the inhibition at 10 µM (CYP2C9) was 18.2% and the AUC ([4]; I.V., 2 mg/kg) was 8.5 µg·h/mL. The CL ([4]; I.V., 2 mg/kg) was 0.25 L/h/kg, the T1/2 ([4]; I.V., 2 mg/kg) was 2.2 h and the Vss ([4]; I.V., 2 mg/kg) was 1.6 L/kg. It also gave an AUC ([4]; P.O., 10 mg/kg) of 6.6 µg·h/mL, a Cmax ([4]; P.O., 10 mg/kg) of 0.9 and a Ft ([4]; P.O., 10 mg/kg) of 15.6%. It also gave a T1/2 ([4]; P.O., 10 mg/kg) of 5.7 h and a Tmax ([4]; P.O., 10 mg/kg) of 2.5 h.
For `O=c1[nH]c(NCc2ccc(F)c(F)c2)nc2cc(Cl)ccc12` [6y, 7-Chloro-2-((3,4-difluorobenzyl)amino)quinazolin-4(3H)-one], the MIC50 (S. aureus ATCC25923) was 0.36 µM (≈ 0.116 µg/mL), the “distortion of H460 cell morphology (in words)” value ([1]; 6.25 µM, brightfield images, 24 h) was “relatively minimal distortion of H460 cell morphology” and the “bacterial load in infected H460 cells (in words)” value ([1]; 6.25 µM, confocal images, 24 h) was “markedly reducing the bacterial load”. For the same compound, the “H460 Assay MIC50 (MIC50 ex vivo)” value ([1]; H460 cells infected with USA300 JE2-GFP, 24 h, GFP fluorescence) was 1.9 µM, the MIC50 [1] was 1.9 µM (≈ 0.611 µg/mL) and the IC50 [2] was 50.5 µM. The “MS rat, % of remaining after 30 min” value [3] was 53.8%, the inhibition at 10 µM (CYP2C9) was 91% and the Ft ([4]; P.O., 10 mg/kg) was 33.4%. It also gave a clearance [4, 5] of 30 mL/min/kg, a half-life [4, 5] of 510 min and an AUC ([4]; rat, in vivo, iv, I.V., 5 mg/kg, read-out: AUC) of 2.8 µg·h/mL. For the same compound, the Vd ([4]; rat, in vivo, iv, I.V., 5 mg/kg, read-out: Vss) was 5.2 L/kg, the half-life ([4]; rat, in vivo, po, P.O., 10 mg/kg) was 216 min and the AUC ([4]; rat, in vivo, po, P.O., 10 mg/kg, read-out: AUC) was 1.9 µg·h/mL. The Cmax ([4]; rat, in vivo, po, P.O., 10 mg/kg, read-out: Cmax) was 200 ng/mL and the Tmax ([4]; rat, in vivo, po, P.O., 10 mg/kg, read-out: Tmax) was 5.3 h.
